In patent US8030346B2, “Heterocyclic quinolone derivatives that inhibit prolyl hydroxylase activity” (Amgen Inc., priority 2007, dated 2011):

Key:
[1] = target: HIF PHD2 (Homo sapiens, UniProt Q9GZT9); test: PHD2 inhibition assay (TR-FRET, VCB-Eu detection of hydroxylated P564-HIF1α peptide); assay type: biochemical; details: Table of PHD2 IC50 values of Example Compounds
Description: Inhibition of HIF PHD2 activity was quantified utilizing the TR-FRET technology. HIF PHD2 catalyzes a hydroxyl modification on the proline residue of the P564-HIF1α peptide substrate (Biotin-[…] (SEQ ID NO: 7)) resulting in recognition and binding of the europylated Von Hippel-Lindau protein (pVHL), elongin B and elongin C heterotrimeric (VCB-Eu) complex.
The PHD2 inhibition assay was executed by addition of freshly dissolved FeCl2 to 178.57 μM (100 μM final concentration) in PHD2 Reaction Buffer containing 30 mM MES, pH 6, 10 mM NaCl, 0.25% Brij-35, 0.01% BSA, and 1% DMSO. 28 μL of the iron solution and 2 μL of inhibitor compounds serially diluted in 100% DMSO (5% DMSO final) were added to black polypropylene 96-well microtiter plates. To that, 10 μL of 10 nM PHD2 (2 nM final) was added to all wells of the plate except for the 8 wells of column 12 (LO control), and allowed to incubate at room temperature on the shaker for one hour. Column 6 was the HI control containing PHD2 enzyme and 5% DMSO vehicle, but no inhibitor compound. To initiate the PHD2 enzymatic reaction, 10 μL of a solution containing 500 nM P564-HIF1α peptide (100 nM final), 10 mM ascorbic acid (2 mM final), and 1.25 μM 2-oxoglutarate (α-ketoglutarate; 0.25 μM final) in PHD2 Reaction Buffer was added to all wells of the plate and allowed to incubate on the shaker at room temperature for one hour.
The reaction was terminated by addition of 25 μL TR-FRET Buffer (50 mM TRIS-HCl, pH 9, 100 mM NaCl, 0.05% BSA, and 0.5% Tween-20) containing 150 mM succinate (product inhibitor; 50 mM final), 75 nM streptavidin-APC (25 nM final), and 7.5 nM VCB-Eu (2.5 nM final). The TR-FRET detection reagents were placed on a shaker for 1 hour to reach binding equilibrium before reading on the Discovery platform (PerkinElmer). Europium is excited at 315 nm and phosphoresces at 615 nm with a large Stoke's shift. APC, in turn, emits at 655 nm upon excitation at 615 nm. The TR-FRET signal is measured as the ratio of the APC 655 nm signal divided by the internal europium reference 615 nm emission signal.
The POC (percentage of control) was determined by comparing the signal from hydroxylated peptide substrate in the enzyme reaction containing inhibitor compound with that from PHD2 enzyme with DMSO vehicle alone (HI control), and no enzyme (LO control). POC was calculated using the formula: % control (POC)=(cpd−average LO)/(average HI−average LO)*100. Data (consisting of POC and inhibitor concentration in […]) was fitted to a 4-parameter equation (y=A+((B−A)/(1+((x/C)^D))), where A is the minimum y (POC) value, B is the maximum y (POC), C is the x (cpd concentration) at the point of inflection and D is the slope factor) using a Levenburg-Marquardt non-linear regression algorithm.

[2] = target: T1, Collagen Prolyl Hydroxylase II (CPH2) (Homo sapiens, UniProt O15460); test: Collagen prolyl hydroxylase II activity by radiometric HPLC measurement of 2-oxoglutarate conversion to succinic acid; assay type: biochemical
T1 construct: made in house; host or cells: Trichoplusia ni insect cells (baculovirus, pFastBac1)
T1 sequence (O15460 22-533 isoform O15460-2 limits assumed): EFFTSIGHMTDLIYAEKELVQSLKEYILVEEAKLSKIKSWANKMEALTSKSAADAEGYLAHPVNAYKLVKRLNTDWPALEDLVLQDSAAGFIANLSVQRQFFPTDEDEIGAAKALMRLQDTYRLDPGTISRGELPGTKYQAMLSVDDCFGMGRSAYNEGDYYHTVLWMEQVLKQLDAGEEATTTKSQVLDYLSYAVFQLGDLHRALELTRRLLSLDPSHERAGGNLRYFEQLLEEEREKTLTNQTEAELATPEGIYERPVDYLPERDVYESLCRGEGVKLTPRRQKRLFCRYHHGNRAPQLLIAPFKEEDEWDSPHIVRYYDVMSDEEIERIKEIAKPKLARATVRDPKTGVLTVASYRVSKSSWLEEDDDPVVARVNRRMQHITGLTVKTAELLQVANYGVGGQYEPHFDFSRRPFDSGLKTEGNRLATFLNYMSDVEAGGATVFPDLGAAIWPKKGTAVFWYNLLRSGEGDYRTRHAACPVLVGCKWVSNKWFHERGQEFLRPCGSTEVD
T1 sequence (P07237 18-508 partner): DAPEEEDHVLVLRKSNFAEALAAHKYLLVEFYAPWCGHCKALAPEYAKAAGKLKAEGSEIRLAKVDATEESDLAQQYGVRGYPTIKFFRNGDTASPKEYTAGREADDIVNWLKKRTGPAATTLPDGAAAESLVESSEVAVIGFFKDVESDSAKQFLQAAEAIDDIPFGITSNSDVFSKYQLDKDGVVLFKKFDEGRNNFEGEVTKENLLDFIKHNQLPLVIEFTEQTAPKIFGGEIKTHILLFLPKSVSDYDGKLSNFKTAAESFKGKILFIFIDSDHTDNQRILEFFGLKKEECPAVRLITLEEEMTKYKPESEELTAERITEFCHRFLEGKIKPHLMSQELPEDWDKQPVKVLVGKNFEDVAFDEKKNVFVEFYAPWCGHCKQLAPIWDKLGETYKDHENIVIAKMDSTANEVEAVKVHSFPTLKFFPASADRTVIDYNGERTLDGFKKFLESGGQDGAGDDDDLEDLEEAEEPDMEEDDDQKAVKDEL
Description: Assay Buffer consisted of Tris-HCl, pH 7.5, 0.2 mM DTT, and 0.5 mg/ml catalase. PPG10 peptide was dissolved in 0.25% acetic acid and denatured by boiling for 5 minutes then placed on ice for 5 minutes. The denatured PPG10 was then pre-mixed with 1 M ascorbate, prepared in water, and the mixture diluted with Assay Buffer to yield a working solution of 5× peptide and ascorbate. FeSO4 was freshly dissolved in water and diluted to a 2.8× concentration in Assay Buffer. Enzyme stocks were diluted to a 5× concentration in Assay Buffer. Example compounds plus FeSO4 solution were mixed, followed by addition of 5× enzyme solutions. After 10 minutes gentle mixing at room temperature, the 5× peptide solution was added. […] Final concentrations in the assay were: 50 mM Tris-HCl, pH 7.5, 0.2 mM DTT, 0.5 mg/mL catalase, 10 μM FeSO4, 100 μM PPG10, 50 μM 5-[^14C]-2-oxoglutarate (23-37 cpm/pmol), 1 mM ascorbate, and 4% DMSO. Reactions were gently mixed at room temperature for 1 hour and terminated by addition of an equal volume of 0.02 N H2SO4.
A portion of each terminated reaction was auto-injected into a Polypore H column (PerkinElmer, Waltham, Mass.) at a rate of 0.3 mL/min with 0.01 NH2SO4 as the mobile phase. The HPLC method employed exploits the difference in pKa of the 2-OG and SA carboxylates to chromatographically separate substrate from product at low pH on ion-exchange resin, as described by Cunliffe, et al (Biochem J., 240, 617-619 (1986)) and Kaule and Gunzler (Anal. Biochem., 184, 291-297 (1990)). An Agilent 1100 HPLC System with dual quaternary pumps, column switching valve, and dual columns was used to resolve product from substrate. The Agilent 1100 Multiple Wavelength Detector indicated UV absorption of the substrate and product peaks at 210 nm and a Beta-RAM Model 2 radiation detector with In-Flow 2:1 scintillation cocktail (IN/US Systems Inc.) enabled quantitation of the 2 radioactive peaks. Laura Lite software (IN/US, Tampa, Fla.) was used to collect and analyze radiometric data. […] To standardize across studies, 2-OG conversion was normalized to percent of control (POC) values using reactions that lacked enzyme or inhibitor as low and high controls, respectively. POC data was fitted to the 4-parameter logistic model (A+((B−A)/(1+((x/C)^D)))) using ActivityBase (IDBS, Alameda Calif.) where A is the minimum POC value, B is the maximum POC value, D is the slope factor, and C is compound concentration at the inflection point (IC50, micromolar).

Chain of HIF PHD2 (Q9GZT9 whole entry): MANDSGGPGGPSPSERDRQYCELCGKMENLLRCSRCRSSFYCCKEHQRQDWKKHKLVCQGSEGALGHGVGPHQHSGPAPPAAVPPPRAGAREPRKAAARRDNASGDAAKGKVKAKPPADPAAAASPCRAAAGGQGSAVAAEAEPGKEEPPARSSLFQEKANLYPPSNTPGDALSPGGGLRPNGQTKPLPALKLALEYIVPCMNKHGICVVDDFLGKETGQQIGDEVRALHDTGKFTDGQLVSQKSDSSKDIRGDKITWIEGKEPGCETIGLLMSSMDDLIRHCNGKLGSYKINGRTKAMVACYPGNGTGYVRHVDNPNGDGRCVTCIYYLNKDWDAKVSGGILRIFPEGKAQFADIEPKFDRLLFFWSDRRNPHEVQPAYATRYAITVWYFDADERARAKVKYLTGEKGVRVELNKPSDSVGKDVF

| SMILES | IC50 [1] [nM] | IC50 [2] [nM] |
| --- | --- | --- |
| Cn1c(=O)c(C(=O)NCC(=O)O)c(O)c2sc(-c3ccc(Cl)cc3)nc21 [Example 1, N-((2-(4-chlorophenyl)-7-hydroxy-4-methyl-5-oxo-4,5-dihydro[1,3]thiazolo[4,5-b]pyridin-6-yl)carbonyl)glycine] | 47 |  |
| Cc1nc2c(s1)c(O)c(C(=O)NCC(=O)O)c(=O)n2C [Example 2, N-((7-hydroxy-2,4-dimethyl-5-oxo-4,5-dihydro[1,3]thiazolo[4,5-b]pyridin-6-yl)carbonyl)glycine] | 20 |  |
| Cn1c(=O)c(C(=O)NCC(=O)O)c(O)c2sccc21 [Example 3, 2-(7-hydroxy-4-methyl-5-oxo-4,5-dihydrothieno[3,2-b]pyridine-6-carboxamido)acetic acid] | 75 | 345 |
| Cc1csc2c(O)c(C(=O)NCC(=O)O)c(=O)n(C)c12 [Example 4, 2-(7-hydroxy-3,4-dimethyl-5-oxo-4,5-dihydrothieno[3,2-b]pyridine-6-carboxamido)acetic acid] | 24 |  |
| Cn1c(=O)c(C(=O)NCC(=O)O)c(O)c2sc(-c3ccc(Cl)cc3)cc21 [Example 5, 2-(2-(4-chlorophenyl)-7-hydroxy-4-methyl-5-oxo-4,5-dihydrothieno[3,2-b]pyridine-6-carboxamido)acetic acid] | 97 |  |
| Cn1c(=O)c(C(=O)NCC(=O)O)c(O)c2sc(Br)cc21 [Example 6, 2-(2-bromo-7-hydroxy-4-methyl-5-oxo-4,5-dihydrothieno[3,2-b]pyridine-6-carboxamido)acetic acid] | 7.3 | 30 |
| Cc1csc2c(O)c(C(=O)N[C@@H](C)C(=O)O)c(=O)n(C)c12 [Example 7, (S)-2-(7-hydroxy-3,4-dimethyl-5-oxo-4,5-dihydrothieno[3,2-b]pyridine-6-carboxamido)propanoic acid] | 122 |  |
| Cn1c(=O)c(C(=O)NCC(=O)O)c(O)c2sc(C(F)(F)F)c(-c3ccccc3)c21 [Example 8, 2-(7-hydroxy-4-methyl-5-oxo-3-phenyl-2-(trifluoromethyl)-4,5-dihydrothieno[3,2-b]pyridine-6-carboxamido)acetic acid] | 18 |  |
| Cn1c(=O)c(C(=O)NCC(=O)O)c(O)c2sc3ccccc3c21 [Example 9, N-((4-hydroxy-1-methyl-2-oxo-1,2-dihydro[1]benzothieno[3,2-b]pyridin-3-yl)carbonyl)glycine] | 15 |  |

Second part, the compound after the results:

| IC50 [1] [nM] | IC50 [2] [nM] | SMILES |
| --- | --- | --- |
| 109 |  | C[C@H](NC(=O)c1c(O)c2sc3ccccc3c2n(C)c1=O)C(=O)O [Example 10, N-((4-hydroxy-1-methyl-2-oxo-1,2-dihydro[1]benzothieno[3,2-b]pyridin-3-yl)carbonyl)-L-alanine] |
| 15 |  | Cn1c(=O)c(C(=O)NCC(=O)O)c(O)c2sc(-c3ccc(F)cc3)cc21 [Example 11, 2-(2-(4-fluorophenyl)-7-hydroxy-4-methyl-5-oxo-4,5-dihydrothieno[3,2-b]pyridine-6-carboxamido)acetic acid] |
| 8.3 |  | Cn1c(=O)c(C(=O)NCC(=O)O)c(O)c2sc(-c3cncnc3)cc21 [Example 12, 2-(7-hydroxy-4-methyl-5-oxo-2-(pyrimidin-5-yl)-4,5-dihydrothieno[3,2-b]pyridine-6-carboxamido)acetic acid] |
| 16 |  | Cc1ncccc1-c1cc2c(s1)c(O)c(C(=O)NCC(=O)O)c(=O)n2C [Example 13, 2-(7-hydroxy-4-methyl-2-(2-methylpyridin-3-yl)-5-oxo-4,5-dihydrothieno[3,2-b]pyridine-6-carboxamido)acetic acid] |
| 78 |  | Cc1ccsc1-c1cc2c(s1)c(O)c(C(=O)NCC(=O)O)c(=O)n2C [Example 14, 2-(7-hydroxy-4-methyl-2-(3-methylthiophen-2-yl)-5-oxo-4,5-dihydrothieno[3,2-b]pyridine-6-carboxamido)acetic acid] |
| 21 |  | Cn1c(=O)c(C(=O)NCC(=O)O)c(O)c2sc(-c3ccccc3)cc21 [Example 15, 2-(7-hydroxy-4-methyl-5-oxo-2-phenyl-4,5-dihydrothieno[3,2-b]pyridine-6-carboxamido)acetic acid] |
| 20 |  | Cc1c(Br)sc2c(O)c(C(=O)NCC(=O)O)c(=O)n(C)c12 [Example 16, 2-(2-bromo-7-hydroxy-3,4-dimethyl-5-oxo-4,5-dihydrothieno[3,2-b]pyridine-6-carboxamido)acetic acid] |
| 64 | 3780 | Cn1c(=O)c(C(=O)CCC(=O)O)c(O)c2sc(Br)cc21 [Example 17, 4-(2-bromo-7-hydroxy-4-methyl-5-oxo-4,5-dihydrothieno[3,2-b]pyridin-6-yl)-4-oxobutanoic acid] |
| 3 | 34300 | Cn1c(=O)c(C(=O)CCC(=O)O)c(O)c2sccc21 [Example 18, 4-(7-hydroxy-4-methyl-5-oxo-4,5-dihydrothieno[3,2-b]pyridin-6-yl)-4-oxobutanoic acid] |
